According to ChEMBL document CHEMBL1147213, “Impact on farnesyltransferase inhibition of 4-chlorophenyl moiety replacement in the Zarnestra series” (Eur J Med Chem, 2007):

target: not listed separately; assay: Inhibition of FTase by SPA; parameters: species or system Homo sapiens

Q: Which IC50 does the source give for `Cn1cncc1[C@](N)(c1ccc(Cl)cc1)c1ccc2c(c1)c(-c1cccc(Cl)c1)cc(=O)n2C` [(S)-TIPIFARNIB] here?
A: Its IC50 is 0.9 nM.

Q: For `N#Cc1ccc(Cn2cncc2C(O)c2ccc3c(c2)c(-c2cccc(Cl)c2)cc2nnnn23)cc1` (stereo not drawn), which IC50 is on record?
A: The IC50 was 11 nM.

Q: Which IC50 does the source give for `Cn1cncc1C(O)(c1ccc2c(c1)c(-c1cccc(Cl)c1)nc1nnnn12)c1ccc(Cl)s1` (stereo not drawn) here?
A: The IC50 was 16 nM.

Q: With `CCc1nccn1C(c1ccc2c(c1)c(-c1cccc(Cl)c1)nc1nnnn12)c1cncn1C` (stereo not drawn) as the molecule, how does the IC50 read?
A: Its IC50 is 5 nM.

Q: Which IC50 does the source give for `Cn1cncc1C(c1ccc2c(c1)c(-c1cccc(Cl)c1)nc1nnnn12)n1ccnc1-c1ccccc1` (stereo not drawn) here?
A: Its IC50 is 1 nM.

Q: With `Cn1cncc1C(N)(c1ccc2c(c1)c(-c1cccc(Cl)c1)nc1nnnn12)c1ccc(Cl)s1` (stereo not drawn) as the molecule, how does the IC50 read?
A: Its IC50 is under 100 nM.

Q: For `Cn1cncc1C(N)(c1ccc(Cl)cc1)c1ccc2c(c1)c(-c1cccc(Cl)c1)cc1nnnn12` (stereo not drawn), which IC50 is on record?
A: The IC50 was 3.5 nM.

Q: Which IC50 does the source give for `Cn1cncc1C(c1ccc2c(c1)c(-c1cccc(Cl)c1)nc1nnnn12)n1ccnc1-c1ccc(F)cc1` (stereo not drawn) here?
A: Its IC50 is 4 nM.

Q: For `Cn1cncc1C(c1ccc2c(c1)c(-c1cccc(Cl)c1)nc1nnnn12)n1ccnc1-c1cccc(C#N)c1` (stereo not drawn), which IC50 is on record?
A: The IC50 was 1 nM.

Q: With `OC(c1ccc2c(c1)c(-c1cccc(Cl)c1)cc1nnnn12)c1cncn1Cc1ccc(Cl)cc1` (stereo not drawn) as the molecule, how does the IC50 read?
A: The IC50 was over 100 nM.

Q: For `Cn1cncc1C(N)(c1ccc(Cl)cc1)c1ccc2c(c1)c(-c1cccc(Cl)c1)nc1nnnn12` (stereo not drawn), which IC50 is on record?
A: Its IC50 is 3.5 nM.

species: Homo sapiens; assay: Inhibition of FTase at 100 nM by SPA

Q: With `Cn1cncc1C(N)(c1ccc2c(c1)c(-c1cccc(Cl)c1)nc1nnnn12)c1ccc(Cl)s1` (stereo not drawn) as the molecule, how does the inhibition read?
A: The inhibition was 69%.

Q: For `OC(c1ccc2c(c1)c(-c1cccc(Cl)c1)cc1nnnn12)c1cncn1Cc1ccc(Cl)cc1` (stereo not drawn), which inhibition is on record?
A: Its inhibition is 32%.
